The RepoRT retention time repository
Counter-ions that a name gives are not always drawn.

Assay: HILIC, Merck SeQuant ZIC-HILIC, 25 °C, 0.25 mL/min; A: water + 16 mM ammonium formate; B: acetonitrile + 0.1% formic acid, pH 3; gradient (min/%B) 0/97 2/97 10/70 15/10 17/10 18/97 25/97
Details: stereoisomer not certain

Row | Compound | LC retention time [min]
1 | CC(CN)C(=O)O (stereo not drawn) [AMINOISOBUTANOATE] | 13.4
2 | O=c1[nH]c(=O)c2[nH]cnc2[nH]1 [XANTHINE] | 8.96
3 | C[n+]1cccc(C(N)=O)c1 [1-METHYLNICOTINAMIDE] | 12.8
4 | O=C1CC(C(=O)O)NC(=O)N1 (stereo not drawn) [DIHYDROOROTATE] | 10.6
5 | CCC(NC(=O)CCC(N)C(=O)O)C(=O)NCC(=O)O (stereo not drawn) [OPHTHALMATE] | 14.1
6 | NC(Cc1cc(I)c(O)c(I)c1)C(=O)O [3-5-DIIODO-L-TYROSINE] | 10.5
7 | O=C(O)C(=O)Cc1c[nH]c2ccccc12 [INDOLE-3-PYRUVATE] | 1.88
8 | O=C[O-] [FORMATE] | 2.79
9 | CCCCCCCCCCCCCCCCCC(=O)OCC(O)COP(=O)(O)OCCN (stereo not drawn) [18-0_LysoPE] | 10.2
10 | CC(=O)C(C)O (stereo not drawn) [ACETOIN] | 2.12
11 | O=C(O)CC(Cc1ccccc1)C(=O)O (racemic) [dl-benzylsuccinic acid] | 2.15
12 | COc1cc(C(O)C(=O)O)ccc1O (stereo not drawn) [3-METHOXY-4-HYDROXYMANDELATE] | 4.88
13 | O=C(O)C=CC(=O)O [fumaric acid] | 7.45
14 | Cc1cnc(C)cn1 [2-5-DIMETHYLPYRAZINE] | 2.19
15 | CC(=O)C1(O)CCC2C3CCC4=CC(=O)CCC4(C)C3CCC21C (stereo not drawn) [17a-Hydroxyprogesterone] | 1.61
16 | N[C@@H](Cc1ccc(O)c([N+](=O)[O-])c1)C(=O)O [3-NITRO-L-TYROSINE] | 11.1
17 | O=C(O)CC(O)C(=O)O (stereo not drawn) [MALATE] | 8.89
18 | O=P(O)(O)OCC(O)CO (stereo not drawn) [GLYCEROL 3-PHOSPHATE] | 14.1
19 | NCCOP(=O)(O)O [ETHANOLAMINE PHOSPHATE] | 14.9
20 | NC(CS(=O)O)C(=O)O (stereo not drawn) [3-SULFINOALANINE] | 14.4
21 | CC(CCC(=O)O)C1CCC2C3CCC4CC(O)CCC4(C)C3CC(=O)C12C (stereo not drawn) [5b-cholanic acid-3a-OL-12-ONE] | 1.81
22 | O=C(O)C(O)COP(=O)(O)O (stereo not drawn) [3-PHOSPHOGLYCERATE] | 18.1
23 | Nc1ncnc2c1ncn2C1OC(COP(=O)(O)OP(=O)(O)OC2OC(CO)C(O)C(O)C2O)C(O)C1O (stereo not drawn) [ADP-GLUCOSE] | 14.7
24 | CC(=O)C1CCC2C3CCC4=CC(=O)CCC4(C)C3CCC12C (stereo not drawn) [Progesterone] | 1.58
25 | Cc1ncc(COP(=O)(O)O)c(C=O)c1O [PYRIDOXAL-PHOSPHATE] | 11.8

Row | Compound | LC retention time [min]
26 | CC(O)C(=O)O (stereo not drawn) [LACTATE] | 2.75
27 | Nc1ccn(C2OC(COP(=O)(O)OP(=O)(O)O)C(O)C2O)c(=O)n1 (stereo not drawn) [CYTIDINE DIPHOSPHATE] | 15.4
28 | CC1OC(OCC2OC(Oc3c(-c4ccc(O)c(O)c4)oc4cc(O)cc(O)c4c3=O)C(O)C(O)C2O)C(O)C(O)C1O (stereo not drawn) [rutin hydrate] | 10.6
29 | Nc1ncnc2c1ncn2C1OC(CO)C(OP(=O)(O)O)C1O (stereo not drawn) [Adenosine 3'-monophosphate free acid] | 13.2
30 | Nc1c(O)cccc1C(=O)O [3-HYDROXYANTHRANILATE] | 2.15
31 | CC12CCC(O)CC1CCC1C2C(O)CC2(C)C1CCC2(O)C(=O)CO (stereo not drawn) | 1.91
32 | O=C(O)C=Cc1cnc[nH]1 [UROCANATE] | 8.66
33 | OCC1OC(OCC2OC(OC3(CO)OC(CO)C(O)C3O)C(O)C(O)C2O)C(O)C(O)C1O (stereo not drawn) [RAFFINOSE] | 14.6
34 | Cc1cn(C2CC(O)C(COP(=O)(O)OP(=O)(O)OC3OC(CO)C(O)C(O)C3O)O2)c(=O)[nH]c1=O [DTDP-D-GLUCOSE] | 14.4
35 | CC(C)C(C(=O)O)C(O)C(=O)O (stereo not drawn) [3-isopropylmalic acid] | 2.19
36 | COc1cc(CCN)ccc1O [3-METHOXYTYRAMINE] | 11
37 | NC(N)=S [THIOUREA] | 5.07
38 | O=P(O)(O)OCC1OC(OP(=O)(O)OP(=O)(O)O)C(O)C1O (stereo not drawn) [PHOSPHORIBOSYL PYROPHOSPHATE] | 15.7
39 | OC1CCCCC1O (stereo not drawn) [TRANS-CYCLOHEXANEDIOL] | 1.85
40 | O=CC(O)CO (stereo not drawn) [GLYCERALDEHYDE] | 2.77
41 | NC(=O)C=CC(=O)O [MALEAMATE] | 2.53
42 | NCCc1cnc[nH]1 [HISTAMINE] | 17
43 | Nc1ccn(C2OC(CO)C3OP(=O)(O)OC32)c(=O)n1 (stereo not drawn) [CYTIDINE 2'-3'-CYCLIC PHOSPHATE] | 13.6
44 | OCC1OC(O)CC1O (stereo not drawn) | 13
45 | CC(CCC(=O)O)CC(=O)O (stereo not drawn) [3-Methyladipic acid] | 2.13
46 | O=C(O)CO [GLYCOLATE] | 4
47 | NC(N)=NCCC[C@H](N)C(=O)O [L-Arginine] | 16
48 | O=C(O)c1ccc(O)c(O)c1 [3-4-DIHYDROXYBENZOATE] | 2.14
49 | CN1C(=O)CCC1c1cccnc1 (stereo not drawn) [Cotinine] | 2.21
50 | c1ccc2ncccc2c1 [QUINOLINE] | 2.14

Row | Compound | LC retention time [min]
51 | OCC1OC(OC2OC(CO)C(O)C(O)C2O)C(O)C(O)C1O (stereo not drawn) [TREHALOSE] | 14.1
52 | CN1CC(=O)NC1=N [CREATININE] | 11.7
53 | O=C(O)c1cccc(O)c1O [2-3-DIHYDROXYBENZOATE] | 2.14
54 | NC(CCSSCCC(N)C(=O)O)C(=O)O (stereo not drawn) [HOMOCYSTINE] | 15
55 | CC12CCC3c4ccc(O)cc4CCC3C1CCC2O (stereo not drawn) [ESTRADIOL-17ALPHA] | 1.7
56 | NC(=O)c1ccc[n+](C2OC(COP(=O)([O-])O)C(O)C2O)c1 (stereo not drawn) [NICOTINAMIDE MONONUCLEOTIDE] | 14.7
57 | CSCCC(O)C(=O)O (stereo not drawn) [2-HYDROXY-4-(METHYLTHIO)BUTANOATE] | 1.99
58 | CC(C)(CC(=O)O)CC(=O)O [3-3-Dimethylglutaric acid] | 2.11
59 | OCCNCCO [DIETHANOLAMINE] | 13.1
60 | CC(=O)NC(C(=O)O)C(C)C (racemic) [N-acetyl-DL-valine] | 2.08
61 | O=C(O)CP(=O)(O)O [PHOSPHONOACETATE] | 14.3
62 | Cn1c(=O)[nH]c2[nH]c(=O)[nH]c2c1=O [1-Methyluric acid] | 9.44
63 | O=C(C=Cc1ccc(O)c(O)c1)OC(Cc1ccc(O)c(O)c1)C(=O)O (stereo not drawn) [ROSMARINATE] | 8.82
64 | Nc1ncnc2c1ncn2C1OC(CO)C2OP(=O)(O)OC21 (stereo not drawn) [ADENOSINE 2'-3'-CYCLIC PHOSPHATE] | 11.4
65 | O=C(O)CCCC(=O)O [GLUTARATE] | 2.13
66 | O=c1ccc2cc(O)ccc2[nH]1 [2-6-quinolinediol] | 2.16
67 | NCCc1ccc(O)c(O)c1 [DOPAMINE] | 12.5
68 | C[N+](C)(C)CCOP(=O)(O)OP(=O)([O-])OCC1OC(n2ccc(N)nc2=O)C(O)C1O (stereo not drawn) [CITICOLINE] | 15.7
69 | Cc1cnc(=O)[nH]c1N [5-METHYLCYTOSINE] | 11.6
70 | O=C(OC1Cc2c(O)cc(O)cc2OC1c1cc(O)c(O)c(O)c1)c1cc(O)c(O)c(O)c1 (single isomer, unassigned; (-)) [(-)-Epigallocatechin gallate] | 12.4
71 | CC(=O)OCC[N+](C)(C)C [ACETYLCHOLINE+C2H2O4] | 10
72 | Cn1cnc2nc(N)[nH]c(=O)c21 [7-methylguanine] | 9.77
73 | C=C(C)CCOP(=O)(O)OP(=O)(O)O [ISOPENTENYL PYROPHOSPHATE] | 2.11
74 | O=C(O)CCCCC1CCSS1 (racemic) | 1.66
75 | O=c1ccn(C2OC(COP(=O)(O)OP(=O)(O)O)C(O)C2O)c(=O)[nH]1 (stereo not drawn) [URIDINE 5'-DIPHOSPHATE] | 15

Row | Compound | LC retention time [min]
76 | CCC(O)C(=O)[O-] (stereo not drawn) [2-HYDROXYBUTYRATE] | 2.1
77 | NC(=O)C1=CN(C2OC(COP(=O)(O)OP(=O)(O)OCC3OC(n4cnc5c(N)ncnc54)C(OP(=O)(O)O)C3O)C(O)C2O)C=CC1 (stereo not drawn) [NADPH] | 15
78 | Cn1cnc2c(ncn2C2OC(CO)C(O)C2O)c1=N (stereo not drawn) [1-METHYLADENOSINE] | 12.8
79 | Nc1ccc(C(=O)O)cc1 [4-AMINOBENZOATE] | 2.12
80 | O=C(O)CCCCCCCCC(=O)O [Sebacic acid] | 1.88
81 | CCCC=O [BUTANAL] | 1.71
82 | COc1ccc2[nH]cc(CCNC(C)=O)c2c1 [MELATONIN] | 1.92
83 | O=C(CO)COP(=O)(O)O [DIHYDROXYACETONE PHOSPHATE] | 14
84 | Nc1nc2c(ncn2C2CC(O)C(COP(=O)(O)O)O2)c(=O)[nH]1 (stereo not drawn) [dGMP sodium salt hydrate] | 14.4
85 | O=C(O)/C=C/c1c[nH]c2ccccc12 [trans-3-indoleacrylic acid] | 2.04
86 | O=CNCC(=O)O [N-FORMYLGLYCINE] | 5.34
87 | NC1C(O)OC(COS(=O)(=O)O)C(O)C1O (stereo not drawn) [GLUCOSAMINE 6-SULFATE] | 15.5
88 | O=C(O)C(=O)CCc1ccccc1 [2-oxo-4-phenyl-butyric acid] | 2.06
89 | CN=C(N)N [METHYLGUANIDINE] | 12
90 | O=C(O)c1cncc(O)c1 [5-Hydroxynicotinic acid] | 6.4
91 | COc1cc(CC(=O)O)ccc1O [HOMOVANILLATE] | 2.04
92 | CC(=O)NCC(=O)O [N-ACETYLGLYCINE] | 4.93
93 | O=C([O-])c1cc(=O)[nH]c(=O)[nH]1 [OROTATE] | 10.9
94 | O=C(O)C(O)Cc1ccc(O)cc1 (stereo not drawn) [HYDROXYPHENYLLACTATE] | 5.36
95 | OCC1OCC(O)C(O)C1O [1-5-Anhydro-D-sorbitol] | 10.1
96 | O=C(O)Cc1cccc(O)c1 [3-HYDROXYPHENYLACETATE] | 2.15
97 | CC1NCCc2cc(O)c(O)cc21 (stereo not drawn) [SALSOLINOL] | 11.1
98 | CC(O)(CC(=O)O)C(=O)O (stereo not drawn) [CITRAMALATE] | 6.53
